Patent US11945801B2, “Bicyclic aza compounds as muscarinic M1 and/or M4 receptor agonists” (Heptares Therapeutics Limited, priority 2018, dated 2024)
Read-outs that look alike come from different tables or passages of the source.

Columns and labels:
Assay type in all cases: cell-based
[1] = biological target: T1, human muscarinic M4 receptor (Homo sapiens, UniProt P08173); assay: Alphascreen Surefire phospho-ERK1/2 functional assay, M4; details: for EC50 / % Emax cf. ACh, M4: CHO cells stably expressing human M4; for EC50: agonist 5 min, 37° C., read-out: pEC50 M4 (converted); for Emax: CHO
T1 construct: expressed in transfected cells
T1 sequence (P08173 1-479): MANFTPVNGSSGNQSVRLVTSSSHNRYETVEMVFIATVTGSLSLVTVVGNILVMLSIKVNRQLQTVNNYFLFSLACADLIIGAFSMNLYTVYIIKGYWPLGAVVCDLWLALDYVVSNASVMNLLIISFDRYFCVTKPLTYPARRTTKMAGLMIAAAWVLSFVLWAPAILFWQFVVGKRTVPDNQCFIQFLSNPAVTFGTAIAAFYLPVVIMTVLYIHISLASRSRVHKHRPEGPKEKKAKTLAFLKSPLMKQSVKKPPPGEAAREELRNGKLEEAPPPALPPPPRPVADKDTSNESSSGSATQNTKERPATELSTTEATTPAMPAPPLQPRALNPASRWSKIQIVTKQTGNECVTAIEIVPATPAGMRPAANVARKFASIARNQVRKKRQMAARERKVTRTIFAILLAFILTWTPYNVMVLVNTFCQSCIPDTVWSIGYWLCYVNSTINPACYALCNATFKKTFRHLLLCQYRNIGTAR
Experimental: (§1) ERK1/2 phosphorylation is a downstream consequence of both Gq/11 and Gi/o protein coupled receptor activation, making it highly suitable for the assessment of M1, M3 (Gq/11 coupled) and M2, M4 receptors (Gi/o coupled), rather than using different assay formats for different receptor subtypes. CHO cells stably expressing the human muscarinic M1, M2, M3 or M4 receptor were plated (25K/well) onto 96-well tissue culture plates in MEM-alpha+10% dialysed FBS. Once adhered, cells were serum-starved overnight. Agonist stimulation was performed by the addition of 5 μL agonist to the cells for 5 min (37° C.). Media was removed and 50 μL of lysis buffer added. After […], a 4 μL sample was transferred to 384-well plate and 7 μL of detection mixture added.
(§2) Isomer assignment (Isomer 1, Isomer 2, etc.) is based on the retention time of the compound using the separation technique that was performed in the final purification step. By implication, this could be reversed phase HPLC, chiral HPLC or chiral SFC retention time, and this will vary from compound to compound.

[2] = biological target: T2, human muscarinic M1 receptor (Homo sapiens, UniProt P11229); assay: Alphascreen Surefire phospho-ERK1/2 functional assay, M1; details: for EC50: agonist 5 min, 37° C.; for Emax: CHO
T2 sequence (P11229 1-460): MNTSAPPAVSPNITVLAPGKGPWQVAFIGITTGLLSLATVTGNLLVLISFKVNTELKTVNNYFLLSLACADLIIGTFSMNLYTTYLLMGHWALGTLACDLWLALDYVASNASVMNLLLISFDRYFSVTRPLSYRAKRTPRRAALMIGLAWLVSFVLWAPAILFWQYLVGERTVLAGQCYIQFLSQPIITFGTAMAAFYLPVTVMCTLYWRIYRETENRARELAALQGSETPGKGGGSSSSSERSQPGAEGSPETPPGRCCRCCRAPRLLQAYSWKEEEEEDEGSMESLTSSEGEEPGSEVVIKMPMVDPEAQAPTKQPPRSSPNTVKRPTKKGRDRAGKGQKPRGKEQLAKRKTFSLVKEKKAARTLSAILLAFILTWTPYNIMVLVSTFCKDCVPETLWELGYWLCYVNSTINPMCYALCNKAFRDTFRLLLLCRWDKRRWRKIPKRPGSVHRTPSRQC
Experimental: as §1, §2

[3] = biological target: T3, human muscarinic M2 receptor (Homo sapiens, UniProt P08172); assay: Alphascreen Surefire phospho-ERK1/2 functional assay, M2; details: for Emax: CHO
T3 sequence (P08172 1-466): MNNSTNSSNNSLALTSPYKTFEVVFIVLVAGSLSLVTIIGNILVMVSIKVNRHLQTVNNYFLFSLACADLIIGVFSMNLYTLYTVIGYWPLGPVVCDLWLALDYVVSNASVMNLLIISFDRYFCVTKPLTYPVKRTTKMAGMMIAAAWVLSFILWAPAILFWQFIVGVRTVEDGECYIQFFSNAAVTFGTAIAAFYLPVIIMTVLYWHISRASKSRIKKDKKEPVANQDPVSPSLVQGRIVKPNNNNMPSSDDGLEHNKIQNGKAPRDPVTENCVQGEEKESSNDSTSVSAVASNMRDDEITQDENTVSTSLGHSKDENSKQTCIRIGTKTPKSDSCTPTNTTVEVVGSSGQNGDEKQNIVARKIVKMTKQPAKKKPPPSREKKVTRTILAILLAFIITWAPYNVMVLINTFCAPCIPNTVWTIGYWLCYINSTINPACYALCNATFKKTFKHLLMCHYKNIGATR
Experimental: as §1, §2

[4] = biological target: T4, human muscarinic M3 receptor (Homo sapiens, UniProt P20309); assay: Alphascreen Surefire phospho-ERK1/2 functional assay, M3; details: for Emax: CHO
T4 construct: expressed in transfected cells
T4 sequence (P20309 whole entry): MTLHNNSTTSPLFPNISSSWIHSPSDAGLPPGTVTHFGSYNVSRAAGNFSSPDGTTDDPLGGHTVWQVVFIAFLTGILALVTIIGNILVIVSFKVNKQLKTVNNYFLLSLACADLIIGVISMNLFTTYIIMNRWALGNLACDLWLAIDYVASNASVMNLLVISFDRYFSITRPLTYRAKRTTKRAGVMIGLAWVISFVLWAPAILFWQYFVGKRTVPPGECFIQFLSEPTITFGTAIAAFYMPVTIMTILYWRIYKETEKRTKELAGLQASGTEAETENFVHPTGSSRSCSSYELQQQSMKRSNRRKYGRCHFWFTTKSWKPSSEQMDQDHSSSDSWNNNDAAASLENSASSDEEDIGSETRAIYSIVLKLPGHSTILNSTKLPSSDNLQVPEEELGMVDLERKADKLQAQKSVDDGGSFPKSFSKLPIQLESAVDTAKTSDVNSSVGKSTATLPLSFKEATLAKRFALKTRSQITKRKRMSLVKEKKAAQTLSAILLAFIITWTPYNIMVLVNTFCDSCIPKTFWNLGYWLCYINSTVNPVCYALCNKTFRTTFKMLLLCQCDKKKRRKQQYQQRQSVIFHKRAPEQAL
Experimental: as §1, §2

[5] = CHO cells stably expressing human M1, read-out: pEC50 M1 (converted)
[6] = CHO cells stably expressing human M2, agonist 5 min, 37° C., read-out: pEC50 M2 (converted)
[7] = CHO cells stably expressing human M3, agonist 5 min, 37° C., read-out: pEC50 M3 (converted)
[8] = read-out: % Emax cf. ACh, M4, CHO cells stably expressing human M4, Emax relative to ACh
[9] = read-out: % Emax cf. ACh, M1, CHO cells stably expressing human M1, Emax relative to ACh
[10] = read-out: % Emax cf. ACh, M2, CHO cells stably expressing human M2, Emax relative to ACh
[11] = read-out: % Emax cf. ACh, M3, CHO cells stably expressing human M3, Emax relative to ACh

SMILES | EC50 [1] [µM] | Emax ([1]; read-out: % Emax cf. ACh, M4) [%] | EC50 [2, 5] [µM] | Emax ([2]; read-out: % Emax cf. ACh, M1) [%] | EC50 [3, 6] [µM] | Emax ([3]; read-out: % Emax cf. ACh, M2) [%] | EC50 [4, 7] [µM] | Emax ([4]; read-out: % Emax cf. ACh, M3) [%] | Emax [1, 8] [%] | Emax [2, 9] [%] | Emax [3, 10] [%] | Emax [4, 11] [%] | further results
CCOC(=O)N1C2CCC1CC(N1CC(CC(=O)N3CCCCC3)C1)C2 (mixture of isomers) [Example 1-4 Isomer mixture, Ethyl-3-(3-(2-oxo-2-(piperidin-1-yl)ethyl)azetidin-1-yl)-8-azabicyclo[3.2.1]octane-8-carboxylate] | > 20 | 17 | 0.309 | 84 | > 20 | 21 | > 20 | 6 |  |  |  |  | 
CCOC(=O)N1C2CCC1CC(N1CC(OC(=O)N3CCCCCC3)C1)C2 (mixture of isomers) [Example 5-1 Isomer mixture, Ethyl 3-(3-((azepane-1-carbonyl)oxy)azetidin-1-yl)-8-azabicyclo[3.2.1]octane-8-carboxylate] | 0.427 | 39 |  | 83 |  | 18 |  | 45 |  |  |  |  | EC50 ([2]; pEC50 M1, CHO cells stably expressing human M1): 0.0891 µM; EC50 [3]: > 20 µM; EC50 [4]: > 20 µM
CCOC(=O)N1C2CCC1CC(N1CC(CC(=O)N(CC)CC)C1)C2 (single isomer, unassigned) [Example 1-1 Isomer 2, Ethyl-3-(3-(2-(diethylamino)-2-oxoethyl)azetidin-1-yl)-8-azabicyclo[3.2.1]octane-8-carboxylate] | 0.2 | 85 | 0.316 | 100 | 1.26 | 58 | > 20 | 28 |  |  |  |  | 
CCOC(=O)N1CC2CCC1CC2N1CC(CC(=O)N(CC)CC)C1 (single isomer, unassigned) [Example 2-1 Isomer 1, Ethyl-5-(3-(2-(diethylamino)-2-oxoethyl)azetidin-1-yl)-2-azabicyclo[2.2.2]octane-2-carboxylate] | > 20 |  | 0.209 |  | > 20 |  | > 20 |  | 9 | 67 | 13 | 6 | 
CCOC(=O)N1CC2CCC1CC2N1CC(CC(=O)N(CC)C(C)C)C1 (single isomer, unassigned) [Example 2-2 Isomer 1, Ethyl-5-(3-(2-(ethyl(isopropyl)amino)-2-oxoethyl)azetidin-1-yl)-2-azabicyclo[2.2.2]octane-2-carboxylate] | 0.257 |  | 0.0191 |  | > 20 |  | > 20 |  | 36 |  | 8 | 12 | % Emax cf. ACh, M1 ([2]; CHO cells stably expressing human M1, Emax relative to ACh, listed as 2-2 Isomer 1): 95%
CCOC(=O)N1CC2CCC1CC2N1CC(CC(=O)N(CC)C(C)C)C1 (single isomer, unassigned) [Example 2-2 Isomer 2, Ethyl-5-(3-(2-(ethyl(isopropyl)amino)-2-oxoethyl)azetidin-1-yl)-2-azabicyclo[2.2.2]octane-2-carboxylate] | > 20 |  | 0.229 |  |  |  |  |  |  |  |  |  | % Emax cf. ACh, M4 ([1]; Emax relative to ACh): 31%; % Emax cf. ACh, M1 ([2]; CHO cells stably expressing human M1, Emax relative to ACh, listed as 2-2 Isomer 2): 65%; % Emax cf. ACh, M2 ([3]; CHO cells stably expressing human M2, Emax relative to ACh): 6%; % Emax cf. ACh, M3 ([4]; CHO cells stably expressing human M3, Emax relative to ACh): 7%
CCOC(=O)N1CC2CCC1CC2N1CC(CC(=O)N2CCCCC2)C1 (single isomer, unassigned) [Example 2-3 Isomer 1, Ethyl-5-(3-(2-oxo-2-(piperidin-1-yl)ethyl)azetidin-1-yl)-2-azabicyclo[2.2.2]octane-2-carboxylate] | 6.46 |  | 0.204 |  | > 20 |  | > 20 |  | 46 | 88 | 10 | 9 | 
CCOC(=O)N1CC2CCC1CC2N1CC(CC(=O)N2CCC23CCC3)C1 (single isomer, unassigned) [Example 2-5 Isomer 1, Ethyl-5-(3-(2-oxo-2-(1-azaspiro[3.3]heptan-1-yl)ethyl)azetidin-1-yl)-2-azabicyclo[2.2.2]octane-2-carboxylate] | > 20 |  | 0.11 |  | > 20 |  | > 20 |  | 23 | 64 | 53 | 35 | 
CCOC(=O)N1C2CCCC1CC(N1CC(CC(=O)N3CCCCC3)C1)C2 (single isomer, unassigned) [Example 3-3 Isomer 1, Ethyl-3-(3-(2-oxo-2-(piperidin-1-yl)ethyl)azetidin-1-yl)-9-azabicyclo[3.3.1]nonane-9-carboxylate] | 1.29 | 55 | 0.316 | 117 | > 20 | 5 | > 20 | 9 |  |  |  |  | 
CCOC(=O)N1CCC2(CC(N3CC(OC(=O)N(CC)CC)C3)C2)C1 (single isomer, unassigned) [Example 4-2 Isomer 2, Ethyl 2-(3-((diethylcarbamoyl)oxy)azetidin-1-yl)-6-azaspiro[3.4]octane-6-carboxylate] | 0.282 |  | 0.158 |  | > 20 |  | > 20 |  | 89 | 105 | 14 | 17 | 
CCOC(=O)N1CC2(CCC(N3CC(OC(=O)N(C)CC)C3)C2)C1 (single isomer, unassigned) [Example 4-4 Isomer 1, Ethyl 6-(3-((ethyl(methyl)carbamoyl)oxy)azetidin-1-yl)-2-azaspiro[3.4]octane-2-carboxylate] | 0.0229 |  | 0.0589 |  | > 20 |  | > 20 |  | 37 | 67 | 5 | 0 | 
CCOC(=O)N1CC2(CCC(N3CC(OC(=O)N(CC)CC)C3)C2)C1 (single isomer, unassigned) [Example 4-5 Isomer 1, Ethyl 6-(3-((diethylcarbamoyl)oxy)azetidin-1-yl)-2-azaspiro[3.4]octane-2-carboxylate] | 0.0331 |  | 0.0158 |  | > 20 |  | > 20 |  |  |  | 6 | 54 | % Emax cf. ACh, M4 ([1]; Emax relative to ACh, listed as 4-5 Isomer 1): 31%; % Emax cf. ACh, M1 ([2]; CHO cells stably expressing human M1, Emax relative to ACh, listed as 4-5 Isomer 1): 66%
